These results are taken from patent US4704464A, “Tumor retarding (1-benzyl-ethylenediamine)-platin (II)-complexes” (ASTA-Werke Aktiengesellschaft Chemische Fabrik, priority 1985, dated 1987).

A short description of the data set: solubility. It counts as physicochemical. Conditions: Example 37 complexes.

Take “D,L-dibenzenesulfonate-(1-benzylethylenediamine)-platinum II [dibenzenesulfonate complexes]”: the water solubility result is “good water solubility”.
